This note sets out measurements from patent US12529022B2, “Human organ-on-chip models for predictive screening” (The Trustees of Columbia University in the City of New York, priority 2018, dated 2026).

Test [1] relates to metastatic (SK-N-MC cell line derived) Ewing sarcoma OOC. Description: Metastatic Ewing sarcoma OOC, luciferase luminescence (cancer cell number and viability). Type of test: cell-based, human. The settings on record: 12 μM. Here is the method: Drug treatment experiments recapitulating the patient treatment regimens and the patient plasma concentration of 12 μM of linsitinib were then carried out on the nonmetastatic and metastatic TE-ES and OS models. FIGS. 42 and 43 are graphs illustrating non-metastatic (RD-ES cell line derived, FIG. 42) and metastatic (SK-N-MC cell line derived, FIG. 43) Ewing sarcoma OOCs were exposed to linsitinib (12 μM) according to the drug treatment regimen. Luminescence as a function of cancer cell number and viability was measured (mean±s.e.m., n=6 for day 3, and n=3 for day 7 and 21, biologically independent per group). Significance was determined by unpaired two-tailed Student's t test of treatment group at specific day with respective control; *P<0.05; **P<0.01; ***P<0.001. Tissue engineered bone tumor models: Using an established protocol, expanded MSCs were seeded into the bone matrix scaffolds (4 mm×4 mm×1 mm) at a concentration of 10^6 cells per scaffold, using 40 μL of medium. The cells were allowed to attach for 2 hours, and then supplemented with additional mesenchymal stem cell medium overnight. The following day, osteogenic differentiation of the seeded cells was initiated by addition of low glucose DMEM supplemented with 1 μM dexamethasone (Sigma-Aldrich), 10 mM β-glycerophosphate (SigmaAldrich), and 50 μM L-ascorbic acid-2-phosphate (Sigma Aldrich). Each scaffold was incubated in 4 mL of osteogenic media, with media changes three times a week, for 3 weeks, allowing for the MSCs to differentiate into functional, maturing osteoblasts. Two weeks following the initiation of osteogenic differentiation, aggregates of tumor cells were prepared as described previously. Briefly, 0.3×10^6 cells were used to form ES aggregates and 0.5×10^6 cells were used to form OS aggregates. After 1 week of culture, the primary bone tumor aggregates were infused into the differentiated osteoblastseeded bone scaffolds (3 aggregates per scaffold, placed apart of each other). Tumor models were established for each of the two ES cell types (non-metastatic RD-ES, metastatic SK-NMC) and three OS cell types (non-metastatic U2-OS and Saos2, metastatic KHOS/NP). TE-RD-ES were cultured in the RPMI medium, TE-U-2 OS in DMEM, TE-Saos2 in McCoy's 5A, and TESK-N-MC and TE-KHOS/NP both in EMEM. Scaffolds without aggregates were used as healthy bone controls for each tumor model (termed TE-bone) and were cultured in the respective cancer cell line medium. All culture media were supplemented with 10% FBS and 1% penicillin/streptomycin. […] Tissues were randomly assigned to experimental groups. Medium was changed every day. Cardiac tissues were exposed to linsitinib for 3 days. The bone tumor models were exposed to a physiological treatment regimen consisted of cycles that involved 3 consecutive days of treatment followed by 4 days without drug, unless otherwise stated. Cell viability: Cancer cell viability was measured for GFP-Luciferase labelled cancer cells using ONE-Glo luciferase substrate that was prepared according to manufacturer's protocol (Promega). Samples were collected following 3, 7, and 21-day cycles of Linsitinib treatment. Cardiac cell viability was assessed through the Pierce LDH Cytotoxicity Assay Kit (Thermo Fisher Scientific). Samples were collected at 0 h, 1 h and 72 h.

The subject of test [2] is non-metastatic (U2-OS cell line derived) osteosarcoma OOC. Kind of test: Non-metastatic osteosarcoma OOC, luciferase luminescence (cancer cell number and viability). The settings on record: 12 μM. Type of test: cell-based, human. Here is the method:
Drug treatment experiments recapitulating the patient treatment regimens and the patient plasma concentration of 12 μM of linsitinib were then carried out on the nonmetastatic and metastatic TE-ES and OS models. FIGS. 44 and 45 are graphs illustrating non-metastatic (U2-OS cell line derived, FIG. 44) and metastatic (KHOS/NP cell line derived, FIG. 45) osteosarcoma OOCs exposed to linsitinib (12 μM) according to the drug treatment regimen outlined. Luminescence as a function of cancer cell number and viability was measured (mean±s.e.m., n=6 for day 3, and n=3 for day 7 and 21, biologically independent per group). Significance was determined by unpaired two-tailed Student's t test of treatment group at specific day with respective control; *P<0.05; **P<0.01; ***P<0.001. Tissue engineered bone tumor models: Using an established protocol, expanded MSCs were seeded into the bone matrix scaffolds (4 mm×4 mm×1 mm) at a concentration of 10^6 cells per scaffold, using 40 μL of medium. The cells were allowed to attach for 2 hours, and then supplemented with additional mesenchymal stem cell medium overnight. The following day, osteogenic differentiation of the seeded cells was initiated by addition of low glucose DMEM supplemented with 1 μM dexamethasone (Sigma-Aldrich), 10 mM β-glycerophosphate (SigmaAldrich), and 50 μM L-ascorbic acid-2-phosphate (Sigma Aldrich). Each scaffold was incubated in 4 mL of osteogenic media, with media changes three times a week, for 3 weeks, allowing for the MSCs to differentiate into functional, maturing osteoblasts. Two weeks following the initiation of osteogenic differentiation, aggregates of tumor cells were prepared as described previously. Briefly, 0.3×10^6 cells were used to form ES aggregates and 0.5×10^6 cells were used to form OS aggregates. […] Cell viability: Cancer cell viability was measured for GFP-Luciferase labelled cancer cells using ONE-Glo luciferase substrate that was prepared according to manufacturer's protocol (Promega). […] Cardiac cell viability was assessed through the Pierce LDH Cytotoxicity Assay Kit (Thermo Fisher Scientific). […]

`C[C@]1(O)C[C@@H](c2nc(-c3ccc4ccc(-c5ccccc5)nc4c3)c3c(N)nccn32)C1` [linsitinib, Linsitinib (OSI-906)]: the “course of treated cancer cell population” value in test [1] (21-day treatment cycle) was “continued to expand throughout the 21-day treatment cycle”; in test [2] (after 3 weeks), “no longer expanding”. In addition, the “drug efficacy after day 3” value in test [1] (after 3 days) is “decrease in drug efficacy”. Moreover, the “luminescence (cancer cell number and viability) vs control” value in test [1] (day 3) is “significant drug response”; in test [1] (day 7) it was “significant responses”; in test [1] (day 21), “significant responses”; in test [2] (after 3 weeks of drug treatment), “significant response”; in test [2] (after 3 days) it was “no significant response”.
